The target in one data set is CYP3A4 (Homo sapiens (Human), UniProt P08684). Kind of data set: Human liver microsomal CYP inhibition assay. To be noted: human liver microsomes, 5-in-1 probe substrate. The format is in vitro ADME. On the procedure:
(§1) The purpose of the study was to evaluate the inhibition of the test sample on human liver microsomal cytochrome P450 isozymes (CYP1A2, CYP2C9, CYP2C19, CYP2D6, and CYP3A4) by using the CYP isozyme 5-in-1 probe substrate.
(§2) Mixed human liver microsomes (HLM) were purchased from Corning Inc. (Steuben, N.Y., USA) or XenoTech, LLC. (Lenexa, Kans., USA) or other suppliers, and stored at the temperature below −70° C. prior to use.
(§3) A series of diluted test sample working solution were added to an incubation system containing cofactors of human liver microsomes, a probe substrate and a circulation system, and the control without a test substance but containing a solvent was used as enzyme activity control (100%). The concentration of the metabolite produced by the probe sample in the sample was determined by liquid chromatography-tandem mass spectrometry (LC-MS/MS). Non-linear regression analysis was performed on the concentration of the average percent activity of the test sample by using SigmaPlot (V.11). The IC50 value was calculated by a three-parameter or four-parameter recursive logarithmic equation.
In general terms: Liver microsomes are vesicles of endoplasmic reticulum, rich in cytochrome P450 enzymes.

Another data set has as its target CYP1A2 (Homo sapiens (Human), UniProt P05177). Kind of data set: Human liver microsomal CYP inhibition assay. Format: in vitro ADME. To be noted: human liver microsomes, 5-in-1 probe substrate. On the procedure:
as §1, §2, §3

Another data set concerns the target CYP2C19 (Homo sapiens (Human), UniProt P33261). Nature of the data set: Human liver microsomal CYP inhibition assay. The following applies: human liver microsomes, 5-in-1 probe substrate. Format: in vitro ADME. The method, then: as §1, §2, §3
In another data set the target is CYP2C9 (Homo sapiens (Human), UniProt P11712). Kind of data set: Human liver microsomal CYP inhibition assay. The format is in vitro ADME. The following applies: human liver microsomes, 5-in-1 probe substrate. On the procedure:
as §1, §2, §3

In a further data set the target is CYP2D6 (Homo sapiens (Human), UniProt P10635). Nature of the data set: Human liver microsomal CYP inhibition assay. Format: in vitro ADME. The following applies: human liver microsomes, 5-in-1 probe substrate. On the procedure:
as §1, §2, §3

Data set [1] has as its target T1, VAP-1/SSAO (Homo sapiens (Human), UniProt Q16853). Kind of data set: VAP-1 cell activity assay (HUVEC or CHO cells transfected with VAP-1/pCDNA (3.1) plasmid, Amplex Red). To be noted: HUVEC or CHO cells transfected with VAP-1 plasmid; read-out: VAP-1/SSAO Cellular Inhibitory Activity IC50. The format is cell-based. The method, then: The inhibition of the sample on VAP-1 cell activity was measured by using an Amplex® Red Monoamine Oxidase kit (Invitrogen #A12214).
The cultured HUVEC or CHO cells were plated into a 6-well plate at a density of 0.8 M/well, placed in a 37° C., 5% CO2 incubator for incubation for 24 hours, and then the cells was transferred with a Lipo2000 reagent and a VAP-1/pCDNA (3.1) plasmid, and liquid was changed for the cells after 5 hours (Lipo2000 was toxic to the cells); after 24 hours, the cells were digested and plated into 384-well plates with a density of 25 μl, 10000 cells/well, and liquid was replaced with medium without FBS for the cells after 6-7 hours, and the cell plates were incubated overnight at 37° C. in a 5% CO2 incubator.
1) Dilution of the compound: serial dilution in 4× gradient was carried out with 100% DMSO, 10 points were diluted, the starting concentration of the to-be-tested compound was 0.5 mM (final concentration was 1 μM); 100 nl of compound solution was transferred to a 384-well cell assay plate with ECHO. Negative control wells: 100 nl of DMSO; background control wells: 100 nl DMSO+25 μL medium.
2) The reaction was carried out in the dark at room temperature for 30 min.
3) Preparation of Amplex Red reagent+HRP+benzylamine substrate working solution: Amplex Red reagent+HRP+benzylamine substrate working solution (200 μM Amplex Red reagent+1 U/mL HRP+1 mM benzylamine): 45 μl of 20 mM Amplex Red reagent mother solution, 22.5 μl of 200 U/ml horseradish peroxidase (HRP) mother solution and 45 ul of 100 mM benzylamine were tanken and added to 4.3875 ml of 1× reaction buffer.
4) After 30 min, 25 μl of the substrate working solution was added to a 384-well plate, and a final concentration was 100 μM Amplex Red reagent+0.5 U/mL HRP+0.5 mM benzylamine, respectively.
5) The reaction was carried out in the dark at room temperature for 60 minutes, and the fluorescence value was measured by Envision: the excitation wave was 535 nm, and the emission wave was 590 nm.
6) Inhibition rate calculation formula: % inhibition rate=(1−(test hole minus background−positive control well minus background)/(negative control well minus background-positive control well minus background))*100
7) The data were analyzed with Prism. The IC50 of the sample against VAP-1 cells was calculated.

In data set [2] the target is T1, VAP-1/SSAO. Kind of data set: Human VAP-1 enzyme activity assay (Amplex Red Monoamine Oxidase kit). The following applies: 10 nM VAP-1 enzyme, 30 min preincubation, benzylamine substrate; read-out: Human Recombinant VAP-1/SSAO Enzyme Inhibitory Activity IC50. The format is biochemical. On the procedure:
Human VAP-1 enzyme activity assay:
The inhibition of the sample on VAP-enzyme activity was measured by using an Amplex® Red Monoamine Oxidase kit (Invitrogen #A12214). 100 nL of the gradiently-diluted to-be-tested compound (solvent DMSO) was added to a 384-well plate. 25 μL of 10 nM VAP-1 enzyme solution was added and incubated for 30 minutes at room temperature. A substrate mixture of VAP-1 enzyme (200 μM Amplex Red, 1 U/mL HRP, 1 mM Benzylamine) was added and incubated for 60 minutes at room temperature. After the incubation, the fluorescent signal was read with a microplate reader Envision (excitation light wavelength 530-560 nm, emission light wavelength 590 nm). The fluorescence signal value after the background signal was removed was analyzed by Prism software, and the IC50 of the sample against the VAP-1 enzyme was calculated.

The nature of data set [3]: Distribution of compounds in liver and blood of CD-1 mice. Format: in vivo. The following applies: single oral dose. The method, then:
Experimental purpose: distribution of compounds in liver and blood of CD-1 mice was tested;
CD-1 Mice (male, 25-35 g, 6-9 weeks old, Shanghai Slack);
Experimental procedure: after oral administration, the drug was distributed in the liver and blood of rodents, candidate compounds in the experiment were formulated into a clear solution to be administered to mice in a single oral dose. The oral solvent was a certain proportion of an aqueous solution of hydroxypropyl P-cyclodextrin or a physiological saline solution. The concentration of the drug in the liver and blood was measured at 1 hour and 4 hours after administration.

T1 sequence (Q16853 whole entry): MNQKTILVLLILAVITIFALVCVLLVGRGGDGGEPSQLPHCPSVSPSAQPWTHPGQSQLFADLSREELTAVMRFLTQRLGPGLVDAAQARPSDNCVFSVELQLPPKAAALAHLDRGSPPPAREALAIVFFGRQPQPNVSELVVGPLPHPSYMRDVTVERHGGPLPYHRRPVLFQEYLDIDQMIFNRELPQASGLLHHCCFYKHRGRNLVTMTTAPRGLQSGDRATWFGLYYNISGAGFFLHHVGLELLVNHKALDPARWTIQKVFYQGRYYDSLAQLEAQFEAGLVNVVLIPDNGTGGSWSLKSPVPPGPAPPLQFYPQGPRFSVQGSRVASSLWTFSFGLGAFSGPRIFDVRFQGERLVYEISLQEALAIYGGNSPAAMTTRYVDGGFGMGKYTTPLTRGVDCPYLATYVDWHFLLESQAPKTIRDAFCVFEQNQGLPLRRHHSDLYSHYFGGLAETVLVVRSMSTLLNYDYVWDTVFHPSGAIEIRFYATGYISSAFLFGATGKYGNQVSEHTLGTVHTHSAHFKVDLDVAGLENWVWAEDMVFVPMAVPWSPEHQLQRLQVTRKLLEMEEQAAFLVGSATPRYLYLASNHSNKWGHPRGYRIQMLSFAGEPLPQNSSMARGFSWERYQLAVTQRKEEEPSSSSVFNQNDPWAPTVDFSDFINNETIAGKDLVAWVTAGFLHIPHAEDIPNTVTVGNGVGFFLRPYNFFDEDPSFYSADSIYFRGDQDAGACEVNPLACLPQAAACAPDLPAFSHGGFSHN
CYP2D6, sequence (P10635 whole entry): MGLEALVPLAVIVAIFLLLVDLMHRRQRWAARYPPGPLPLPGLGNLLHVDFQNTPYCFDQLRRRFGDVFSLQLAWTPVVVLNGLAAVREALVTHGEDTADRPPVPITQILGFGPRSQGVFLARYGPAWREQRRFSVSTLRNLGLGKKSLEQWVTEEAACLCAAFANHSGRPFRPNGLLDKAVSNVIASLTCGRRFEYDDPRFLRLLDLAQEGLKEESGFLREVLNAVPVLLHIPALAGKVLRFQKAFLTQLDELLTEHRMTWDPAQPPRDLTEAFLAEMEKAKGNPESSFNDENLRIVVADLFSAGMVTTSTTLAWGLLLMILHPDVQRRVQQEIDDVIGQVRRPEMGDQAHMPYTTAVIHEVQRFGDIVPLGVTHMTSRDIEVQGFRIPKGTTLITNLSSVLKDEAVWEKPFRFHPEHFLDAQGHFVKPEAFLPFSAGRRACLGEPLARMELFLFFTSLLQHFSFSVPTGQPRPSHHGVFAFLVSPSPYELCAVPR
CYP2C19, sequence (P33261 whole entry): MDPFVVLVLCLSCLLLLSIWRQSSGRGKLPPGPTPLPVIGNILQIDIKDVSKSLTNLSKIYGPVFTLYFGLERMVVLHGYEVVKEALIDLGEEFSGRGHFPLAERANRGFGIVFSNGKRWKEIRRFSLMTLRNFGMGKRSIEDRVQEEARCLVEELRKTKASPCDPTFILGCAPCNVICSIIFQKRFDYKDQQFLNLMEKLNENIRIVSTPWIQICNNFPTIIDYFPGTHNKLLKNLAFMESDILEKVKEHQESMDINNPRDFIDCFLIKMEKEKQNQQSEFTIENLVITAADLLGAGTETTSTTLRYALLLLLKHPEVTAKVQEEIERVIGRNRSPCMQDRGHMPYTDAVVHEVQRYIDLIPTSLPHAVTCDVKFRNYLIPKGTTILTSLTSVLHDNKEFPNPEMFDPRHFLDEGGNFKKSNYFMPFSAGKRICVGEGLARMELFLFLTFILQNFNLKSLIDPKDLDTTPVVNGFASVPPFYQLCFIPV
CYP1A2, sequence (P05177 whole entry): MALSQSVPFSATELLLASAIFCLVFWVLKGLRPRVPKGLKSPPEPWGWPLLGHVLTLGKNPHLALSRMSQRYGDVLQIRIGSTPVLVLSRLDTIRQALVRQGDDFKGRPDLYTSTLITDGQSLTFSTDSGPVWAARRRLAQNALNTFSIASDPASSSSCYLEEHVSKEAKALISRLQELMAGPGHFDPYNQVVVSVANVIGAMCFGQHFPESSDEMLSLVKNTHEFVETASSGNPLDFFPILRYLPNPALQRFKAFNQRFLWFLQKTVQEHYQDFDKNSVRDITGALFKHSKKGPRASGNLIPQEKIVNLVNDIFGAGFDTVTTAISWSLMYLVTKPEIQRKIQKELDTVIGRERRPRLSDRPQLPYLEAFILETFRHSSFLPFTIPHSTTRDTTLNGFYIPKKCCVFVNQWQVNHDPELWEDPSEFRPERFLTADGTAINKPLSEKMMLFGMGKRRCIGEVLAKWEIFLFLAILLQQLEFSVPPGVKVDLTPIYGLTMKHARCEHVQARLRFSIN
CYP3A4, sequence (P08684 whole entry): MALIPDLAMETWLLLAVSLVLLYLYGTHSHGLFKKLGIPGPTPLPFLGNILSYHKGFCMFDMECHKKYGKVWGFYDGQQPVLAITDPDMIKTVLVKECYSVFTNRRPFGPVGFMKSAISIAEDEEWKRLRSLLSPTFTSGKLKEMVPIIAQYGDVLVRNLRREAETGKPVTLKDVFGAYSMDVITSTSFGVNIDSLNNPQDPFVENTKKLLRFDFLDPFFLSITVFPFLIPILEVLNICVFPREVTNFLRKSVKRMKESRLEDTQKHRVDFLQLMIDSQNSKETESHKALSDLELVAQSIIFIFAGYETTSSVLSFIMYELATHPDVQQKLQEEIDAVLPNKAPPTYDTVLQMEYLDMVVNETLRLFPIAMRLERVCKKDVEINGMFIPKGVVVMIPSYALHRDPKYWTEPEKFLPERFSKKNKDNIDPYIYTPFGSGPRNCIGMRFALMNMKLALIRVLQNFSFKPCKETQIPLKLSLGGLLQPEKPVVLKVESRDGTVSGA
CYP2C9, sequence (P11712 whole entry): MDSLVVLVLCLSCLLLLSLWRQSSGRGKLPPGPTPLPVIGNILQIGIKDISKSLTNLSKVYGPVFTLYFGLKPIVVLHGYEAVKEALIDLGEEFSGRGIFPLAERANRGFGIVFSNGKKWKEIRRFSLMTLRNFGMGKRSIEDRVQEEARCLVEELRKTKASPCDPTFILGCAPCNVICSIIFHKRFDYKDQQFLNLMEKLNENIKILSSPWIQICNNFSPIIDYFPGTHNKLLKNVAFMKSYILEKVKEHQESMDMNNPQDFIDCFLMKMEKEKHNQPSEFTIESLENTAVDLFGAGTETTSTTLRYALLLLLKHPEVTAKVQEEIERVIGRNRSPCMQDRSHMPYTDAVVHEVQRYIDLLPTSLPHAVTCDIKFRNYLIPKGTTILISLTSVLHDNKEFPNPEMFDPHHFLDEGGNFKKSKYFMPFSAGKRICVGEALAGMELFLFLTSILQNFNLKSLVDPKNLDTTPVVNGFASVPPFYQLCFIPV

In the case of `Cl.Cn1nc(-c2ccc(OC/C(=C/F)CN)cc2)nc1C(F)F` [WX126], the IC50 is greater than 50 µM against CYP3A4; 5 µM against CYP1A2; 17 µM at CYP2C19; 24 µM at CYP2C9; 36 µM against CYP2D6; 0.0003 µM on VAP-1/SSAO [1]. Besides, the IC50 on VAP-1/SSAO [2] is 0.0002 µM. The “Liver Concentration” value was 13520 in data set [3] (@1.0 hour) and 3364 in data set [3] (@4.0 hour). For the same compound, the entries for the “Liver Concentration/Plasma Concentration ratio” value in data set [3] (@1.0 hour) and in data set [3] (@4.0 hour) were 15 and 17, respectively. The “Plasma Concentration” value in data set [3] (@1.0 hour) came to 934; in data set [3] (@4.0 hour) it was 190.

The record behind these values is patent US11001563B2, “SSAO inhibitor” (SHANDONG DANHONG PHARMACEUTICAL CO., LTD., priority 2017, dated 2021).
